Columns and labels:
[1] = test system: phospho-ERK in SW620 (KRAS-G12V) cells; test: pERK In Cell Western (ICW) assay (Method B), SW620; assay type: cell-based
How it was run: (§1)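 After overnight attachment, cells received nine half-log compound concentrations for 3 hours, were fixed, permeabilized and probed with phospho-ERK antibody plus DRAQ5. Normalized pERK signal versus blank control yields IC50 via variable-slope four-parameter fit.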

[2] = target: GST-tagged KRAS-G12D (2-169) (Homo sapiens, UniProt P01116, G12D); test: Nucleotide exchange assay (NEA), SOS-mediated, HTRF, KRAS G12D; assay type: biochemical; settings: Table 4; IC50 extracted at 30 min; 20 nM SOScat; read-out: NEA G12D IC50
Sequence of GST-tagged KRAS-G12D (2-169) (P01116 2-169 isoform P01116-2 G12D): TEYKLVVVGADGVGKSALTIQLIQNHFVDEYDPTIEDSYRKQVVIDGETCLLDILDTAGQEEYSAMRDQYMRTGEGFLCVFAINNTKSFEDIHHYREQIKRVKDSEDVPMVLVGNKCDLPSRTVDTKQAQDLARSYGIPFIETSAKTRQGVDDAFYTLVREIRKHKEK
How it was run: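 SOS1cat-driven loading of fluorescent GTP-DY-647P1 (150 nM) onto GST-KRAS-G12D (2-169, 0.25 nM) read by time-resolved FRET; SOScat 20 nM, compound preincubated with KRAS 1 h at RT. Signal blanked to no-SOS reactions, normalized to DMSO; IC50 fitted from the 30-min read.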

[3] = target: GST-tagged KRAS-G12V (2-169) (Homo sapiens, UniProt P01116, G12V); test: Nucleotide exchange assay (NEA), SOS-mediated, HTRF, KRAS G12V; assay type: biochemical; settings: Table 4; IC50 extracted at 90 min; 80 nM SOS
Sequence of GST-tagged KRAS-G12V (2-169) (P01116 2-169 isoform P01116-2 G12V): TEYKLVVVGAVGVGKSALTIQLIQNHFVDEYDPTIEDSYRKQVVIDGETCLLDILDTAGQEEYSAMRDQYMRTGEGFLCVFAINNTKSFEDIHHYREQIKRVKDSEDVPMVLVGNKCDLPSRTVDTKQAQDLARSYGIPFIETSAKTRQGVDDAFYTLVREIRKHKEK
How it was run: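 Exchange onto fluorescent GTP-DY-647P1 (150 nM final) catalysed by 80 nM SOS1cat was followed by Tb-anti-GST HTRF at RT for up to 90 min, after 1 h compound pre-incubation with 0.25 nM GST-tagged KRAS-G12V (2-169), pH 7.3. DMSO = 0%, no-SOS blank = 100%; 4-parameter IC50 taken at 90 min.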

[4] = test system: phospho-ERK in GP2D (KRAS-G12D) cells; test: pERK In Cell Western (ICW) assay (Method B), GP2D; assay type: cell-based
How it was run: as §1

[5] = Homo sapiens, SW-620, 3 h, Table 4

| Structure (SMILES) | IC50 [1, 5] | IC50 [2] | IC50 [3] | IC50 ([4]; GP2d, 3 h, Table 4) | IC50 ([1]; Table 4, 3 hours) | IC50 ([4]; Table 4, 3 hours) |
| --- | --- | --- | --- | --- | --- | --- |
| N#Cc1c(N)sc2c1C1(CC2)CN(c2nc(NCc3ccn[nH]3)nc(OC[C@@]34CCCN3C[C@H](F)C4)n2)C1 [Compound 84, 2-amino-1′-[4-[[(2R,8S)-2-fluoro-1,2,3,5,6,7-hexahydropyrrolizin-8-yl]methoxy]-6-(1H-pyrazol-5-ylmethylamino)-1,3,5-triazin-2-yl]spiro[5,6-dihydrocyclopenta[b]thiophene-4,3′-azetidine]-3-carbonitrile] | ≥ 20 µM | 0.1 to 1 µM | 0.1 to 1 µM | 1 to 20 µM |  |  |
| C[C@H](c1cccnc1N)N(CC(F)F)c1nc(OC[C@@]23CCCN2C[C@H](F)C3)nc(N2CC3(C2)SCc2sc(N)c(C#N)c23)n1 [Compound 183, 2-amino-1′-[4-[[(1R)-1-(2-amino-3-pyridyl)ethyl]-(2,2-difluoroethyl)amino]-6-[[(2R,8S)-2-fluoro-1,2,3,5,6,7-hexahydropyrrolizin-8-yl]methoxy]-1,3,5-triazin-2-yl]spiro[6H-thieno[3,4-b]thiophene-4,3′-azetidine]-3-carbonitrile] | < 0.01 µM | < 0.01 µM | < 0.01 µM | < 0.01 µM |  |  |
| CC(c1cccnc1N)N(C)c1nc(OC[C@@]23CCCN2C[C@H](F)C3)nc(N2CC3(C2)SCc2sc(N)c(C#N)c23)n1 (single isomer, unassigned) [Compound 120B, 2-amino-1′-[4-[[(1*)-1-(2-amino-3-pyridyl)ethyl]-methyl-amino]-6-[[(2R,8S)-2-fluoro-1,2,3,5,6,7-hexahydropyrrolizin-8-yl]methoxy]-1,3,5-triazin-2-yl]spiro[6H-thieno[3,4-b]thiophene-4,3′-azetidine]-3-carbonitrile] |  | < 0.01 µM | < 0.01 µM |  | 0.01 to 0.1 µM | 0.01 to 0.1 µM |
| N#Cc1c(N)sc2c1C1(CC2)CN(c2nc(OC[C@@]34CCCN3C[C@H](F)C4)nc(N(CCO)Cc3cccnc3N)n2)C1 [Compound 107, 2-amino-1′-[4-[(2-amino-3-pyridyl)methyl-(2-hydroxyethyl)amino]-6-[[(2R,8S)-2-fluoro-1,2,3,5,6,7-hexahydropyrrolizin-8-yl]methoxy]-1,3,5-triazin-2-yl]spiro[5,6-dihydrocyclopenta[b]thiophene-4,3′-azetidine]-3-carbonitrile] | 0.01 to 0.1 µM | < 0.01 µM | < 0.01 µM | 0.01 to 0.1 µM |  |  |
| C[C@@]1(O)CCCN(c2nc(OC[C@@]34CCCN3C[C@H](F)C4)nc(N3CC4(C3)SCc3sc(N)c(C#N)c34)n2)C1 [Compound 49, 2-amino-1′-[4-[[(2R,8S)-2-fluoro-1,2,3,5,6,7-hexahydropyrrolizin-8-yl]methoxy]-6-[(3R)-3-hydroxy-3-methyl-1-piperidyl]-1,3,5-triazin-2-yl]spiro[6H-thieno[2,3-c]thiophene-4,3′-azetidine]-3-carbonitrile] | 0.1 to 1 µM | < 0.01 µM | < 0.01 µM | < 0.01 µM |  |  |
| C[C@]1(CO)C[C@@H](O)CN1c1nc(OC[C@@]23CCCN2C[C@H](F)C3)nc(N2CC3(CCc4sc(N)c(C#N)c43)C2)n1 [Compound 58, 2-amino-1′-[4-[[(2R,8S)-2-fluoro-1,2,3,5,6,7-hexahydropyrrolizin-8-yl]methoxy]-6-[(2R,4R)-4-hydroxy-2-(hydroxymethyl)-2-methyl-pyrrolidin-1-yl]-1,3,5-triazin-2-yl]spiro[5,6-dihydrocyclopenta[b]thiophene-4,3′-azetidine]-3-carbonitrile] | 1 to 20 µM | 0.01 to 0.1 µM | 0.01 to 0.1 µM | 1 to 20 µM |  |  |
| N#Cc1c(N)sc2c1C1(CN(c3nc(OC[C@@]45CCCN4C[C@H](F)C5)nc(Oc4ccnnc4)n3)C1)SC2 [Compound 169, 2-amino-1′-[4-[[(2R,8S)-2-fluoro-1,2,3,5,6,7-hexahydropyrrolizin-8-yl]methoxy]-6-pyridazin-4-yloxy-1,3,5-triazin-2-yl]spiro[6H-thieno[2,3-c]thiophene-4,3′-azetidine]-3-carbonitrile] | 1 to 20 µM | 1 to 20 µM | 0.1 to 1 µM | 1 to 20 µM |  |  |
| N#Cc1c(N)sc2c1C1(CC2)CN(c2nc(OC[C@@]34CCCN3C[C@H](F)C4)nc(N3CCCC(O)(CO)C3)n2)C1 (stereo partly drawn) [Compound 85, 2-amino-1′-[4-[3-hydroxy-3-(hydroxymethyl)-1-piperidyl]-6-[[(2R,8S)-2-fluoro-1,2,3,5,6,7-hexahydropyrrolizin-8-yl]methoxy]-1,3,5-triazin-2-yl]spiro[5,6-dihydrocyclopenta[b]thiophene-4,3′-azetidine]-3-carbonitrile] | 1 to 20 µM | 0.1 to 1 µM | 0.01 to 0.1 µM | 1 to 20 µM |  |  |
| CC(c1cccnc1N)N(C)c1nc(OCCc2nccn2C)nc(N2CC3(CCc4sc(N)c(C#N)c43)C2)n1 (stereo not drawn) [Compound 117, 2-amino-1′-[4-[1-(2-amino-3-pyridyl)ethyl-methyl-amino]-6-[2-(1-methylimidazol-2-yl)ethoxy]-1,3,5-triazin-2-yl]spiro[5,6-dihydrocyclopenta[b]thiophene-4,3′-azetidine]-3-carbonitrile] | 0.1 to 1 µM | 0.1 to 1 µM | 0.01 to 0.1 µM | 0.1 to 1 µM |  |  |
| N#Cc1c(N)sc2c1C1(CC2)CN(c2nc(OC[C@@]34CCCN3C[C@H](F)C4)nc(N3CCOCC(C#N)C3)n2)C1 (single isomer, unassigned) [Compound 91B, (6*)-4-[4-(2-amino-3-cyano-spiro[5,6-dihydrocyclopenta[b]thiophene-4,3′-azetidine]-1′-yl)-6-[[(2R,8S)-2-fluoro-1,2,3,5,6,7-hexahydropyrrolizin-8-yl]methoxy]-1,3,5-triazin-2-yl]-1,4-oxazepane-6-carbonitrile] |  | < 0.01 µM | < 0.01 µM |  | 0.01 to 0.1 µM | 0.1 to 1 µM |
| CCN(c1nc(OC[C@@]23CCCN2C[C@H](F)C3)nc(N2CC3(C2)SCc2sc(N)c(C#N)c23)n1)C(C)c1nccnc1N (single isomer, unassigned) [Compound 168B, 2-amino-1′-[4-[[(1*)-1-(3-aminopyrazin-2-yl)ethyl]-ethyl-amino]-6-[[(2R,8S)-2-fluoro-1,2,3,5,6,7-hexahydropyrrolizin-8-yl]methoxy]-1,3,5-triazin-2-yl]spiro[6H-thieno[3,4-b]thiophene-4,3′-azetidine]-3-carbonitrile] |  | 0.01 to 0.1 µM | < 0.01 µM |  | 0.01 to 0.1 µM | 0.1 to 1 µM |
| CC(c1cccnc1O)N(C)c1nc(OC[C@@]23CCCN2C[C@H](F)C3)nc(N2CC3(CCc4sc(N)c(C#N)c43)C2)n1 (stereo partly drawn) [Compound 138, 2-amino-1′-[4-[[(2R,8S)-2-fluoro-1,2,3,5,6,7-hexahydropyrrolizin-8-yl]methoxy]-6-[1-(2-hydroxy-3-pyridyl)ethyl-methyl-amino]-1,3,5-triazin-2-yl]spiro[5,6-dihydrocyclopenta[b]thiophene-4,3′-azetidine]-3-carbonitrile] | 1 to 20 µM | 0.1 to 1 µM | 1 to 20 µM | 1 to 20 µM |  |  |
| C[C@@]1(O)CCCN(c2nc(OC[C@@]34CCCN3C[C@H](F)C4)nc(N3CC4(C3)c3c(sc(N)c3C#N)CC4F)n2)C1 (stereo partly drawn) [Compound 71, 2-amino-5-fluoro-1′-[4-[[(2R,8S)-2-fluoro-1,2,3,5,6,7-hexahydropyrrolizin-8-yl]methoxy]-6-[(3R)-3-hydroxy-3-methyl-1-piperidyl]-1,3,5-triazin-2-yl]spiro[5,6-dihydrocyclopenta[b]thiophene-4,3′-azetidine]-3-carbonitrile] | 0.1 to 1 µM | < 0.01 µM | 0.01 to 0.1 µM | 0.1 to 1 µM |  |  |
| N#Cc1c(N)sc2c1C1(CC2)CN(c2nc(OC[C@@]34CCCN3C[C@H](F)C4)nc(N3CCCCC(C#N)C3)n2)C1 (stereo partly drawn) [Compound 74, 2-amino-1′-[4-(3-cyanoazepan-1-yl)-6-[[(2R,8S)-2-fluoro-1,2,3,5,6,7-hexahydropyrrolizin-8-yl]methoxy]-1,3,5-triazin-2-yl]spiro[5,6-dihydrocyclopenta[b]thiophene-4,3′-azetidine]-3-carbonitrile] | 0.1 to 1 µM | 0.01 to 0.1 µM | < 0.01 µM | 0.1 to 1 µM |  |  |
| C[C@@]1(O)CCCN(c2nc(OC[C@@]34CCCN3C[C@H](F)C4)nc(N3CC4(C3)c3c(sc(N)c3C#N)CC3CC34)n2)C1 (stereo partly drawn) [Compound 51, 2-amino-1′-[4-[[(2R,8S)-2-fluoro-1,2,3,5,6,7-hexahydropyrrolizin-8-yl]methoxy]-6-[(3R)-3-hydroxy-3-methyl-1-piperidyl]-1,3,5-triazin-2-yl]spiro[4a,5,5a,6-tetrahydrocyclopropa[f]benzothiophene-4,3′-azetidine]-3-carbonitrile] | 1 to 20 µM | 0.01 to 0.1 µM | 0.01 to 0.1 µM | 0.1 to 1 µM |  |  |

From patent publication US12421254B2, “KRAS modulators and uses thereof” (Quanta Therapeutics, Inc., priority 2023, dated 2025)
